Laboratory results from patent US12268727B2, “Bioactive polypeptides for improvements in plant protection, growth and productivity” (priority 2017, dated 2025).
“And” between values parts separate entries of the source, which are not always exact repeats. Equal values may be shown once.

Tests used:
Phakopsora pachyrhizi = experiment: Asian soybean rust severity and defoliation, field trials in Paraguay; type: in vivo; details: for defoliation: Yatytay site; for less Asian soybean rust leaf area damage than untreated control: two foliar applications from R1, 150 and 300 mL/Ha
soybean [1] = experiment: Soybean yield in trials infected with Phakopsora pachyrhizi and Cercospora kikuchii, Paraguay; type: in vivo; details: for yield increase vs untreated control: FOX Fungicide where combined
Text: Beginning at the R1 stage of development, soybean plants received two foliar applications of the compositions described in Table 90 with an interval of 13-14 days between spray applications. Foliar treatments were applied to a single soy variety (which one? Same at all 3 sites) at the three sites, with 4 replicated plots (3×10 meters, 30 m2; with minimum of 6 rows per treatment). Disease assessments for trials that were naturally infected were scored for the severity of infection (0-100% of foliage affected) were scored for 10 plants within each plot for both Asian soybean rust caused by Phakopsora pachyrhizi and Cercospora leaf blight of soybean caused by Cercospora kikuchii at the R4-R5 stage of soy development (4-15 days after second foliar application) with guidance from Godoy et al (1997; Journal of plant diseases and protection 104:336-345). Percent phytotoxicity (0-100% of foliage affected) was also scored at the R4-R5 stage of soy development. Severity of infection and phytotoxicity were averaged across all four replicates per site (Total=12 replicates, 3 sites with 4 replicates each). Standard deviation for each treatment between the three sites was calculated.

peppers (Capsicum) = experiment: Foliar application to pepper, yield; type: in vivo, pepper (Capsicum); details: for increase in average fruit weight per plant vs surfactant only: Jalapeno, pre-bloom; for combined yield average increase, RK and HHW varieties: first flower
Method: Foliar treatments of Bt.4Q7 Flg22 and Ec.Flg22 bioactive priming polypeptides were applied using small scale plots designed to simulate commercial growing conditions for peppers (Capsicum). Two varieties of pepper: Red Knight (RK) and Hungarian Hot Wax (HHW) were grown from 6-week old transplants in raised beds covered with black plastic mulch that had good water-holding characteristics and a pH of 5.8-6.6. Plants were grown using drip irrigation and fertilizer applied following grower guidelines throughout the growing season to ensure optimum plant growth and yields. Small raised bed plots were designed to simulate the planting densities used by commercial growers that generally plant approximately 10,000-14,000 plants per acre in double rows 14-18 inches (35.6 to 46 cm) apart on plastic mulched beds with 16-24 inches (40.6 to 61 cm) between plants in the row and with the beds spaced 5.0-6.5 feet ([…]) apart from their centers. A single row of peppers also can be planted on each bed (5,000-6,500 plants per acre or 12,355-16,062 plants per hectare).
Effects of the foliar applications on pepper yield were determined for two separate harvests using a once over harvest approach and normalized to the yield of the control plants. The average percentage change in yield for each treatment over the yield for the control plants is reported as pounds/acre (lbs/Ac) in Table 29.
Foliar treatment of Gm.RHPP (SEQ ID NO: 600) was applied as an exogenous spray at the first-bloom stage to increase yield in two pepper varieties. Foliar treatment of Gm.RHPP was applied using small scale plots designed to simulate commercial growing conditions for peppers (Capsicum) as described in Example 13. Foliar applications with the Gm.RHPP bioactive priming polypeptide were applied at the first flower stage, on two varieties of pepper, Red Knight (RK) and Hungarian Hot Wax (HHW). […] Effects of the foliar applications on pepper yield were determined for two separate harvests using a once over harvest approach and normalized to the yield of the control plants. The average percentage change in yield over the yield for the control plants is reported in Table 42, as the percent change per total weight (lbs/Ac) of peppers harvested. Average percent change in yield is reported for the 2 replicate harvests (trials) for the RK and HHW pepper varieties and then as a combined average for both varieties.
Small-scale plots were designed to simulate commercial growing conditions for jalapeno peppers. Peppers were grown for 12-weeks in a controlled growth room and then transplanted outside in 2 raised beds covered with black plastic mulch that had good water-holding characteristics and in soil having a pH of 5.8-6.6. Jalapeno pepper plants were spaced 14-16 inches (38 cm) apart with 16-24 inches (50 cm) between plants containing approximately 25 plants per row bed. Plants were grown using drip irrigation and fertilizer applied following grower guidelines throughout the growing season to provide optimum conditions for plant growth. The raised bed plots were designed to simulate the planting densities used by commercial growers that generally plant approximately plants per acre (5,000-6,500 plants per acre or 12,355-16,062 plants per hectare) in double rows 35.6-45.7 cm apart with the beds spaced 5.0-6.5 feet (1.52-1.98 meters) apart from their centers (Orzolek et al., “Agricultural Alternatives: Pepper Production.” University Park: Penn State Extension, 2010).

soybean [2] = experiment: Seed treatment of soybean, field yield trials; type: in vivo; details: for Average Yield Bu/Ac / Average Change in Bu/Ac compared to Untreated Control: seed treatment on base ST; for Average Yield Bu/Ac: 1 variety, 1 location, four replicate plots
squash = experiment: Foliar application to squash, yield; type: in vivo; details: Crookneck squash; for change in fruit weight vs surfactant only control / increase in weight of harvested squash fruit per plant: Bt.4Q7Flg22 2.0 Fl. oz/Ac, Gm.RHPP 3.2 Fl. oz/Ac
Text: Formulation 2 (F2) consists of the D RI Bt.4Q7 Flg22 applied with 0.01% (wv) non-ionic surfactant. […] Yield comparisons were made between the plants treated with the foliar Bt.4Q7Flg22 F1 and F2 spray applications compared to the control (water) or non-treated squash plants. Squash plants were cultivated in sandy loam soil as follows. 2.5 cm holes were cut in 2.5 ft. (0.76 m) wide plastic covered mounds, two rows per mound, holes spaced 1.5 ft (0.46 m) apart within each row. Rows were staggered within the mound. Mounds were spaced 4 ft (1.2 m) apart. Three squash seeds were planted per hole and thinned to a single plant per hole 14 days after planting. Drip irrigation tubing was laid in the center of each mound, and plants were watered as necessary.
Squash plants were grown from seed in raised beds until bloom, and foliar treated in the same Florida (FL) location using two replicated trials or two separate harvests. Yield for the foliar Bt.4Q7Flg22 applied F1 and F2 treated plants is reported as the number of squash per plant, the weight (grams) per squash and the total squash yield (lbs/Ac) and represented as a percentage change as compared to non-treated control plants (Table 31).
Yield comparisons were made between the plants treated with the polypeptides compared to surfactant only control plants, with three replicates per treatment. […] Replicates with average yield per plant 50% above or 50% below the median yield for the trial were excluded as outliers.
Squash plants were cultivated in sandy loam soil as follows. 2.5 cm holes were cut in 0.76 meters wide plastic covered mounds, two rows per mound, holes spaced 0.46 meters apart within each row. Rows were staggered within the mound. Mounds were spaced 1.2 meters apart. Three squash seeds were planted per hole and thinned to a single plant per hole 14 days after planting. Drip irrigation tubing was laid in the center of each mound, and plants were watered as necessary.

[3] = 1 Fl. oz/Ac, foliar at first flower
[4] = 20 Fl. oz/Ac, foliar at first flower
[5] = Bt.4Q7Flg22 2 Fl. oz/Ac, Gm.RHPP 3.2 Fl. oz/Ac
[6] = polypeptide 0.25 μM (cellobiose 1 mM where combined)
[7] = polypeptide 1.0 μM (cellobiose 1 mM where combined)
[8] = Jalapeno pepper, foliar at early bloom, 100 μM, 3.2 fl oz/Ac
[9] = foliar 1 Fl. oz/Ac at first flower, vs water control, 2 harvests

## Bt.4Q7Flg22: Flg22 polypeptide (22 amino acids) from flagellin of Bacillus thuringiensis strain 4Q7 (DRLSSGKRINSASDDAAGLAIA; listed as Bacillus thuringiensis)
Phakopsora pachyrhizi; R7, 150 mL/Ha
  defoliation: 70%
Phakopsora pachyrhizi; R7, 300 mL/Ha
  defoliation: 60%
Phakopsora pachyrhizi
  less Asian soybean rust leaf area damage than untreated control: 12.4-13.0%
Soybean [1]; Bt.4Q7Flg22 300 mL/Ha, FOX Fungicide at label rate
  increase in yield (relative): 36.1%
Soybean [1]; polypeptide 150 mL/Ha
  yield increase vs untreated control: 342.2 kg/Ha
Soybean [1]; polypeptide 300 mL/Ha
  yield increase vs untreated control: 427.2 kg/Ha
Peppers (Capsicum); [3]
  Avg. Percent Change Yield Total Weight (lbs/Ac) (Hungarian Hot Wax) 2 Replicate Trials: +77%
  Avg. Percent Change Yield Total Weight (lbs/Ac) Red Knight 2 Replicate Trials: +29%
  Combined Avg. Percent Change Yield Total Number (lbs/Ac) RK and HHW: +53%
Peppers (Capsicum); [4]
  Avg. Percent Change Yield Total Weight (lbs/Ac) (Hungarian Hot Wax) 2 Replicate Trials: +42%
  Avg. Percent Change Yield Total Weight (lbs/Ac) Red Knight 2 Replicate Trials: +8%
  Combined Avg. Percent Change Yield Total Number (lbs/Ac) RK and HHW: +25%
Peppers (Capsicum); 4 Fl. oz/Ac
  increase in average fruit weight per plant vs surfactant only: 40%
Peppers (Capsicum); [5]
  increase in average fruit weight per plant vs surfactant only: 49%
Peppers (Capsicum); high rate 20 Fl. oz/Ac
  combined yield average increase, RK and HHW varieties: 25%
  yield increase over control, HHW variety: 42%
Peppers (Capsicum); low rate 1 Fl. oz/Ac
  combined yield average increase, RK and HHW varieties: 53%
  yield increase over control, HHW variety: 77% and 72%
Soybean [2]; 1.0 μM, 0.14 Fl. oz per unit, Columbia Mo., 4 replicate plots
  average yield increase over base seed treatment: 5.11 Bu/Ac
Soybean [2]; [6]
  Average Yield Bu/Ac: 43.80 Bu/Ac
  Average Change in Bu/Ac compared to Untreated Control: +2.69 Bu/Ac
Soybean [2]; [7]
  Average Yield Bu/Ac: 46.22 Bu/Ac
  Average Change in Bu/Ac compared to Untreated Control: +5.11 Bu/Ac
Soybean [2]; third study, 12 locations
  win rate: 64%
  yield benefit: 1.3 Bu/Ac
squash
  change in fruit weight vs surfactant only control: 4.4%
  increase in weight of harvested squash fruit per plant: 31.7 grams

## GGIRAAPTGNER (Glycine max) [RHPP, Root Hair Promoting Peptide from Glycine max]
Phakopsora pachyrhizi; R7, 150 mL/Ha
  defoliation: 96%
Phakopsora pachyrhizi; R7, 300 mL/Ha
  defoliation: 70%
Phakopsora pachyrhizi
  less Asian soybean rust leaf area damage than untreated control: 10.5-11.3%
Soybean [1]; polypeptide 150 mL/Ha
  yield increase vs untreated control: 294.2 kg/Ha
Soybean [1]; polypeptide 300 mL/Ha
  yield increase vs untreated control: 506.8 kg/Ha
Peppers (Capsicum); 1 Fl. oz/Ac
  increase in yield vs control, combined average of both varieties: 67%
Peppers (Capsicum); 1 Fl. oz/Ac, HHW peppers
  increase in yield vs control: 46%
Peppers (Capsicum); 1 Fl. oz/Ac, RK peppers
  increase in yield vs control: 87%
Peppers (Capsicum); [8]
  Average Fruit Weight (grams) per Plant: 156.6 grams
  Percentage Change in Fruit Weight Compared to Surfactant Control: +27%
Peppers (Capsicum); [5]
  increase in average fruit weight per plant vs surfactant only: 27%
Peppers (Capsicum); [9]
  Avg. Percent Change Yield Total Weight (lbs/Ac) Hungarian Hot Wax: +46%
  Avg. Percent Change Yield Total Weight (lbs/Ac) Red Knight: +87%
Peppers (Capsicum); foliar 1 Fl. oz/Ac at first flower, vs water control, both varieties
  Combined Avg. Percent Change Yield Total Number (lbs/Ac) RK and HHW: +67%
Soybean [2]; seed treatment, 11 sites
  win rate: 73%
  yield increase: 1.2 bu/Ac
Soybean [2]; third study, 12 locations
  win rate: 64%
  yield benefit: 0.4 Bu/Ac
squash; foliar at first bloom, Bt.4Q7Flg22 16.7 μM 2 fl oz/Ac, Gm.RHPP 100 μM 3.2 fl oz/Ac, two harvests
  Average squash fruit weight (grams) per plant: 748.4 grams
squash; foliar at first bloom, Bt.4Q7Flg22 2 fl oz/Ac, Gm.RHPP 3.2 fl oz/Ac
  Percentage Change in Fruit Weight Compared to Surfactant only control: +4.4%
squash
  change in fruit weight vs surfactant only control: 4.4%
  increase in weight of harvested squash fruit per plant: 31.7 grams
